Laboratory results: patent publication US11484539B2, “Compounds and their uses for alleviating menopause-associated symptoms” (Estetra SPRL, priority 2018, dated 2022)
Read-outs that look alike come from different tables or passages of the source. Marks after values point to notes of the source that are not given here.

Tests used:
[1] = test system: post-menopausal women; assay: Genito-urinary symptoms (GSM), VVA subject self-assessment; format: in vivo
Method: Change from baseline to week 12 in the following GSM symptoms (VVA subject self-assessment) were recorded: • a) Vaginal dryness (sensation of dryness or burning in the vagina; none=0 mild=1, moderate=2 or severe=3):
• b) Vaginal and/or vulvar irritation/itching (sensation of abnormal irritation or sensitive condition in the vagina; none=0, mild=1, moderate=2 or severe=3):
• c) Dysuria (sensation of pain or difficulty in urinating; none=0, mild=1, moderate=2 or severe=3):
• d) Vaginal pain associated with sexual activity (sensation of pain with sexual intercourse none=0, mild=1, moderate=2 or severe=3):
• e) Vaginal bleeding associated with sexual activity (loss of blood with sexual intercourse; presence=1 vs. absence=0): […]

[2] = test system: post-menopausal women; assay: Patients leaving the study; format: in vivo
From the text: 3. Patients leaving the study

[3] = test system: post-menopausal women; assay: Adverse Events (AEs, TEAEs); format: in vivo
From the text: This is confirmed by the following statistical analysis. Using a Poisson regression model with a random effect for the patient and treatment group as a covariate to model the count of TEAEs in the different treatment groups, it can be shown that there is no statistical difference between the treatment groups (p value of 0.099). Second, a chi-square test was used to assess if the prevalence of patients reporting TEAEs in each treatment group was similar. No statistical difference was found between the treatment groups (p value of 0.575).

[4] = test system: post-menopausal women; assay: Menopause Rating Scale (MRS), total MRS score; format: in vivo; design: key: 0 = asymptomatic, 44 = highest degree of complaints
From the text: As used herein, the terms “Quality of Life” (and the abbreviation “QoL”) refers to a parameter which can be assessed, for example, by using questionnaires, such as, by way of example and not limitation, the “Menopause Rating Scale” questionnaire (Heinemann et al., 2003, “International versions of the Menopause Rating Scale (MRS)” Health Qual Life Outcomes 1: 28; Heinemann et al., 2004, “The Menopause Rating Scale (MRS) scale: A methodological review”. Health Qual Life Outcomes 2: 45; Heinemann et al., 2004, “The Menopause Rating Scale (MRS) as outcome measure for hormone treatment? A validation study”. Health Qual Life Outcomes 2:67; as further detailed below in Example 1 Section C.) or the MENQOL questionnaire (The Menopause-specific Quality of Life (MENQOL) questionnaire, Hilditch et al.; Maturitas 1996; A menopause-specific quality of life questionnaire: development and psychometric properties; 24(3); p. 161-175).
The Menopause Rating Scale (MRS) is a health-related quality of life scale allowing the measure of severity of age-/menopause-related complaints by rating a profile of symptoms (Heinemann et al., 2003, “International versions of the Menopause Rating Scale (MRS)” Health Qual Life Outcomes 1: 28; Heinemann et al., 2004, “The Menopause Rating Scale (MRS) scale: A methodological review”. Health Qual Life Outcomes 2: 45; Heinemann et al., 2004, “The Menopause Rating Scale (MRS) as outcome measure for hormone treatment? A validation study”. Health Qual Life Outcomes 2:67).
The score increases point by point with increasing severity of subjectively perceived complaints in each one of 11 items (severity expressed in 0 to 4 points in each item). By checking these 5 possible boxes of “severity” for each of the items in the questionnaire, the respondent provides their personal perception. The total MRS score ranges between 0 (asymptomatic) to 44 (highest degree of complaints). The minimal/maximal scores vary between three dimensions depending on the number of complaints allocated to the respective dimension of symptoms (Heinemann et al., 2003, Health Qual Life Outcomes 1: 28): • 1. psychological symptoms: 0 to 16 scoring points (4 symptoms: depressed, irritable, anxious, exhausted); • 2. somato-vegetative symptoms: 0 to 16 points (4 symptoms: sweating/flush, cardiac complaints, sleeping disorders, joint & muscle complaints); • 3. urogenital symptoms: 0 to 12 points (3 symptoms: sexual problems, urinary complaints, vaginal dryness).

[5] = test system: postmenopausal women; settings: cited from earlier work

Number of patients leaving the study ([2]; 2.5 mg): 9
Number of patients leaving the study ([2]; 5 mg): 11
Number of patients leaving the study ([2]; 10 mg): 15
Number of patients leaving the study ([2]; 15 mg): 8
Compound: C[C@]12CC[C@@H]3c4ccc(O)cc4CC[C@H]3[C@@H]1[C@@H](O)[C@@H](O)[C@@H]2O [E4, 1,3,5 (10)-estratrien-3,15alpha,16alpha,17beta-tetrol]
Dysuria score (none=0, mild=1, moderate=2, severe=3), mean ± SD ([1]; 2.5 mg, Baseline): 0.2 ± 0.56
Vaginal and/or vulvar irritation/itching score (none=0, mild=1, moderate=2, severe=3), mean ± SD ([1]; 2.5 mg, Baseline): 0.7 ± 0.96
Vaginal bleeding associated with sexual activity, Absence (%) ([1]; 2.5 mg, Baseline): 100%
Vaginal bleeding associated with sexual activity, Presence (%) ([1]; 2.5 mg, Baseline): 0%
Vaginal dryness score (none=0, mild=1, moderate=2, severe=3), mean ± SD ([1]; 2.5 mg, Baseline): 1 ± 0.90
Vaginal pain associated with sexual activity score (none=0, mild=1, moderate=2, severe=3), mean ± SD ([1]; 2.5 mg, Baseline): 0.6 ± 0.77
Dysuria score (none=0, mild=1, moderate=2, severe=3), mean ± SD ([1]; 2.5 mg, Week 12): 0 ± 0.19
Vaginal and/or vulvar irritation/itching score (none=0, mild=1, moderate=2, severe=3), mean ± SD ([1]; 2.5 mg, Week 12): 0.3 ± 0.60
Vaginal bleeding associated with sexual activity, Absence (%) ([1]; 2.5 mg, Week 12): 100%
Vaginal bleeding associated with sexual activity, Presence (%) ([1]; 2.5 mg, Week 12): 0%
Vaginal dryness score (none=0, mild=1, moderate=2, severe=3), mean ± SD ([1]; 2.5 mg, Week 12): 0.5 ± 0.77
Vaginal pain associated with sexual activity score (none=0, mild=1, moderate=2, severe=3), mean ± SD ([1]; 2.5 mg, Week 12): 0.3 ± 0.73
Dysuria score (none=0, mild=1, moderate=2, severe=3), mean ± SD ([1]; 5 mg, Baseline): 0.2 ± 0.56
Vaginal and/or vulvar irritation/itching score (none=0, mild=1, moderate=2, severe=3), mean ± SD ([1]; 5 mg, Baseline): 0.6 ± 0.90
Vaginal bleeding associated with sexual activity, Presence (%) ([1]; 5 mg, Baseline): 6.4%
Vaginal dryness score (none=0, mild=1, moderate=2, severe=3), mean ± SD ([1]; 5 mg, Baseline): 1.3 ± 0.94
Vaginal pain associated with sexual activity score (none=0, mild=1, moderate=2, severe=3), mean ± SD ([1]; 5 mg, Baseline): 1 ± 1.07
Vaginal bleeding associated with sexual activity, Absence (%) ([1]; 5 mg, Baseline, some patients had no sexual activity): 91.5^# %
Dysuria score (none=0, mild=1, moderate=2, severe=3), mean ± SD ([1]; 5 mg, Week 12): 0 ± 0.20
Vaginal and/or vulvar irritation/itching score (none=0, mild=1, moderate=2, severe=3), mean ± SD ([1]; 5 mg, Week 12): 0.4 ± 0.65
Vaginal bleeding associated with sexual activity, Absence (%) ([1]; 5 mg, Week 12): 100%
Vaginal bleeding associated with sexual activity, Presence (%) ([1]; 5 mg, Week 12): 0%
Vaginal dryness score (none=0, mild=1, moderate=2, severe=3), mean ± SD ([1]; 5 mg, Week 12): 0.7 ± 0.86
Vaginal pain associated with sexual activity score (none=0, mild=1, moderate=2, severe=3), mean ± SD ([1]; 5 mg, Week 12): 0.5 ± 0.78
Dysuria score (none=0, mild=1, moderate=2, severe=3), mean ± SD ([1]; 10 mg, Baseline): 0.2 ± 0.58
Vaginal and/or vulvar irritation/itching score (none=0, mild=1, moderate=2, severe=3), mean ± SD ([1]; 10 mg, Baseline): 0.7 ± 0.87
Vaginal bleeding associated with sexual activity, Absence (%) ([1]; 10 mg, Baseline): 100%
Vaginal bleeding associated with sexual activity, Presence (%) ([1]; 10 mg, Baseline): 0%
Vaginal dryness score (none=0, mild=1, moderate=2, severe=3), mean ± SD ([1]; 10 mg, Baseline): 1 ± 0.93
Vaginal pain associated with sexual activity score (none=0, mild=1, moderate=2, severe=3), mean ± SD ([1]; 10 mg, Baseline): 0.6 ± 0.77
Dysuria score (none=0, mild=1, moderate=2, severe=3), mean ± SD ([1]; 10 mg, Week 12): 0.1 ± 0.23
Vaginal and/or vulvar irritation/itching score (none=0, mild=1, moderate=2, severe=3), mean ± SD ([1]; 10 mg, Week 12): 0.3 ± 0.64
Vaginal bleeding associated with sexual activity, Absence (%) ([1]; 10 mg, Week 12): 100%
Vaginal bleeding associated with sexual activity, Presence (%) ([1]; 10 mg, Week 12): 0%
Vaginal dryness score (none=0, mild=1, moderate=2, severe=3), mean ± SD ([1]; 10 mg, Week 12): 0.5 ± 0.75
Vaginal pain associated with sexual activity score (none=0, mild=1, moderate=2, severe=3), mean ± SD ([1]; 10 mg, Week 12): 0.2 ± 0.36
Dysuria score (none=0, mild=1, moderate=2, severe=3), mean ± SD ([1]; 15 mg, Baseline): 0.3 ± 0.58
Vaginal and/or vulvar irritation/itching score (none=0, mild=1, moderate=2, severe=3), mean ± SD ([1]; 15 mg, Baseline): 0.5 ± 0.85
Vaginal bleeding associated with sexual activity, Presence (%) ([1]; 15 mg, Baseline): 0%
Vaginal dryness score (none=0, mild=1, moderate=2, severe=3), mean ± SD ([1]; 15 mg, Baseline): 1.1 ± 1.04
Vaginal pain associated with sexual activity score (none=0, mild=1, moderate=2, severe=3), mean ± SD ([1]; 15 mg, Baseline): 0.7 ± 0.90
Vaginal bleeding associated with sexual activity, Absence (%) ([1]; 15 mg, Baseline, some patients had no sexual activity): 97.9^# %
Dysuria score (none=0, mild=1, moderate=2, severe=3), mean ± SD ([1]; 15 mg, Week 12): 0.3 ± 0.61
Vaginal and/or vulvar irritation/itching score (none=0, mild=1, moderate=2, severe=3), mean ± SD ([1]; 15 mg, Week 12): 0.4 ± 0.70
Vaginal bleeding associated with sexual activity, Absence (%) ([1]; 15 mg, Week 12): 95.8%
Vaginal bleeding associated with sexual activity, Presence (%) ([1]; 15 mg, Week 12): 4.2%
Vaginal dryness score (none=0, mild=1, moderate=2, severe=3), mean ± SD ([1]; 15 mg, Week 12): 0.5 ± 0.68
Vaginal pain associated with sexual activity score (none=0, mild=1, moderate=2, severe=3), mean ± SD ([1]; 15 mg, Week 12): 0.3 ± 0.54
Count of Treatment Emergent AEs (TEAEs) ([3]; 2.5 mg): 61
Percentage of patients with TEAE leading to Study Discontinuation ([3]; 2.5 mg): 1.9%
Percentage of patients with severe TEAE ([3]; 2.5 mg): 7.7%
Count of Treatment Emergent AEs (TEAEs) ([3]; 5 mg): 63
Percentage of patients with TEAE leading to Study Discontinuation ([3]; 5 mg): 6.4%
Percentage of patients with severe TEAE ([3]; 5 mg): 10.6%
Count of Treatment Emergent AEs (TEAEs) ([3]; 10 mg): 95
Percentage of patients with TEAE leading to Study Discontinuation ([3]; 10 mg): 5.6%
Percentage of patients with severe TEAE ([3]; 10 mg): 7.4%
Average AEs per patient, in patients who had AEs ([3]; 10 mg group): 3.2
Count of Treatment Emergent AEs (TEAEs) ([3]; 15 mg): 82
Percentage of patients with TEAE leading to Study Discontinuation ([3]; 15 mg): 4.1%
Percentage of patients with severe TEAE ([3]; 15 mg): 6.1%
Average AEs per patient, in patients who had AEs ([3]; 15 mg group): 2.6
TEAEs compared with the 10 mg group ([3]; 15 mg group): less TEAEs than patients in the 10 mg group
Total MRS Score, Mean ([4]; 2.5 mg, Baseline): 16.5
Total MRS Score, Mean ([4]; 2.5 mg, Week 12): 9.5
Total MRS Score, Mean ([4]; 2.5 mg, week 4): 10.3
Total MRS Score, Mean ([4]; 5 mg, Baseline): 16.5
Total MRS Score, Mean ([4]; 5 mg, Week 12): 11.0
Total MRS Score, Mean ([4]; 5 mg, week 4): 10.5
Total MRS Score, Mean ([4]; 10 mg, Baseline): 17.6
Total MRS Score, Mean ([4]; 10 mg, Week 12): 9.7
Total MRS Score, Mean ([4]; 10 mg, week 4): 11.7
Total MRS Score, Mean ([4]; 15 mg, Baseline): 16.4
Total MRS Score, Mean ([4]; 15 mg, Week 12): 8.1
Total MRS Score, Mean ([4]; 15 mg, week 4): 8.7
Endometrial thickness ([5]; 2 mg estetrol group): stable
Mean number of hot flushes and sweating ([5]; 2 mg estetrol per day): decrease
Endometrial thickness ([5]; 10 mg estetrol group): increasing
